These results are taken from ChEMBL document CHEMBL1130125, “beta-Methylation of the Phe7 and Trp9 melanotropin side chain pharmacophores affects ligand-receptor interactions and prolonged biological activity” (J Med Chem, 1997).

Molecules are shown by their SMILES.

Experiment [1] is described as follows: Decrease in lizard skin reflectivity ([…] activity). Type of experiment: functional.
In experiment [2] the target is frog skin melanocortin receptor (Rana pipiens). Nature of the experiment: Decrease in frog skin reflectivity ([…] activity).
Another experiment concerns lizard. Nature of the experiment: Relative potency compared to alpha MSH in a lizard skin bioassay. Type of experiment: functional.
Experiment [3] has as its system frog skin melanocortin receptor (Rana pipiens). Nature of the experiment: Relative potency compared to alpha MSH in a frog skin bioassay.

As usually defined, the EC50 is the concentration giving half of the maximal effect.

For the compound `CCCC[C@H](NC(C)=O)C(=O)N[C@H]1CC(=O)NCCCC[C@@H](C(N)=O)NC(=O)[C@H]2Cc3c([nH]c4ccccc34)CN2C(=O)[C@H](CCCNC(=N)N)NC(=O)[C@@H](Cc2ccccc2)NC(=O)[C@H](Cc2cnc[nH]2)NC1=O`, the EC50 in experiment [1] amounted to 11.1 nM; in experiment [2] it was 1 nM.
In the same order, the values of `CCCC[C@H](NC(C)=O)C(=O)N[C@H]1CC(=O)NCCCCC(C(N)=O)NC(=O)[C@H](Cc2c[nH]c3ccccc23)NC(=O)[C@H](CCCN=C(N)N)NC(=O)[C@@H]([C@H](C)c2ccccc2)NC(=O)[C@H](Cc2c[nH]cn2)NC1=O` (single isomer, unassigned; 7) [listing 1 of 2 here] are 20 nM and 16.7 nM.
On to `CCCC[C@H](NC(=O)[C@H](CO)NC(=O)[C@H](Cc1ccc(O)cc1)NC(=O)[C@H](CO)NC(C)=O)C(=O)N[C@@H](CCC(=O)O)C(=O)N[C@@H](Cc1c[nH]cn1)C(=O)N[C@H](C(=O)N[C@@H](CCCN=C(N)N)C(=O)N[C@@H](Cc1c[nH]c2ccccc12)C(=O)NCC(=O)N[C@@H](CCCCN)C(=O)N1CCC[C@H]1C(=O)N[C@H](C(N)=O)C(C)C)[C@@H](C)c1ccccc1`, for which, in experiment [1], a half-maximal effect (EC50) was put at 3.33 nM.
For `CCCC[C@H](NC(C)=O)C(=O)N[C@H]1CC(=O)NCCCC[C@@H](C(N)=O)NC(=O)[C@@H]2Cc3c([nH]c4ccccc34)CN2C(=O)[C@H](CCCNC(=N)N)NC(=O)[C@@H](Cc2ccccc2)NC(=O)[C@H](Cc2cnc[nH]2)NC1=O`, the EC50 worked out at 20 nM in experiment [1] and 3.33 nM in experiment [2].
The matching figures for `CCCC[C@H](NC(C)=O)C(=O)N[C@H]1CC(=O)NCCCCC(C(N)=O)NC(=O)C([C@H](C)c2c[nH]c3ccccc23)NC(=O)[C@H](CCCN=C(N)N)NC(=O)C(Cc2ccccc2)NC(=O)[C@H](Cc2c[nH]cn2)NC1=O` (single isomer, unassigned; 10) [listing 1 of 2 here]: 1.43 nM and 0.06 nM.
On to `CCCC[C@H](NC(C)=O)C(=O)N[C@H]1CC(=O)NCCCCC(C(N)=O)NC(=O)[C@H](Cc2c[nH]c3ccccc23)NC(=O)[C@H](CCCN=C(N)N)NC(=O)[C@@H]([C@H](C)c2ccccc2)NC(=O)[C@H](Cc2c[nH]cn2)NC1=O` (single isomer, unassigned; 7) [listing 2 of 2 here], for which the Relative potency with lizard was found to be 0.05; in experiment [3] it was 0.006.
The matching figures for `CCCC[C@H](NC(C)=O)C(=O)N[C@H]1CC(=O)NCCCCC(C(N)=O)NC(=O)C([C@H](C)c2c[nH]c3ccccc23)NC(=O)[C@H](CCCN=C(N)N)NC(=O)C(Cc2ccccc2)NC(=O)[C@H](Cc2c[nH]cn2)NC1=O` (single isomer, unassigned; 10) [listing 2 of 2 here]: 0.7 and 1.6.
As to `CCCC[C@H](NC(=O)[C@H](CO)NC(=O)[C@H](Cc1ccc(O)cc1)NC(=O)[C@H](CO)NC(C)=O)C(=O)N[C@@H](CCC(=O)O)C(=O)N[C@@H](Cc1c[nH]cn1)C(=O)N[C@@H](C(=O)N[C@@H](CCCN=C(N)N)C(=O)N[C@@H](Cc1c[nH]c2ccccc12)C(=O)NCC(=O)N[C@@H](CCCCN)C(=O)N1CCC[C@H]1C(=O)N[C@H](C(N)=O)C(C)C)[C@@H](C)c1ccccc1` (stereo in doubt; 17), the EC50 in experiment [1] was determined as 1 nM.
`CCCC[C@H](NC(C)=O)C(=O)N[C@H]1CC(=O)NCCCCC(C(N)=O)NC(=O)[C@H]([C@H](C)c2c[nH]c3ccccc23)NC(=O)[C@H](CCCN=C(N)N)NC(=O)C(Cc2ccccc2)NC(=O)[C@H](Cc2c[nH]cn2)NC1=O` (single isomer, unassigned): the EC50 in experiment [1] worked out at 6.67 nM. Besides, the Relative potency in the experiment with lizard was found to be 0.15; in experiment [3], 0.004.
As for `CCCC[C@H](NC(C)=O)C(=O)N[C@H]1CC(=O)NCCCCC(C(N)=O)NC(=O)[C@H](Cc2c[nH]c3ccccc23)NC(=O)[C@H](CCCN=C(N)N)NC(=O)[C@@H]([C@@H](C)c2ccccc2)NC(=O)[C@H](Cc2c[nH]cn2)NC1=O` (single isomer, unassigned), the EC50 in experiment [1] worked out at 0.3 nM; in experiment [2], 2 nM. The Relative potency in the experiment with lizard worked out at 3.3; in experiment [3], 0.05.
With `CCCC[C@H](NC(C)=O)C(=O)N[C@H]1CC(=O)NCCCCC(C(N)=O)NC(=O)C([C@H](C)c2c[nH]c3ccccc23)NC(=O)[C@H](CCCN=C(N)N)NC(=O)C(Cc2ccccc2)NC(=O)[C@H](Cc2c[nH]cn2)NC1=O` (single isomer, unassigned; 11) [listing 1 of 2 here], the EC50 in experiment [1] turned out to be 1 nM; in experiment [2] it was 0.33 nM.
`CCCC[C@H](NC(=O)[C@H](CO)NC(=O)[C@H](Cc1ccc(O)cc1)NC(=O)[C@H](CO)NC(C)=O)C(=O)N[C@@H](CCC(=O)O)C(=O)N[C@@H](Cc1c[nH]cn1)C(=O)N[C@H](C(=O)N[C@@H](CCCN=C(N)N)C(=O)N[C@@H](Cc1c[nH]c2ccccc12)C(=O)NCC(=O)N[C@@H](CCCCN)C(=O)N1CCC[C@H]1C(=O)N[C@H](C(N)=O)C(C)C)[C@H](C)c1ccccc1` displayed an EC50 in experiment [1] of 1 nM.
The same measure, in the same setting: then `CCCC[C@H](NC(C)=O)C(=O)N[C@H]1CC(=O)NCCCC[C@@H](C(N)=O)NC(=O)[C@H]([C@@H](C)c2c[nH]c3ccccc23)NC(=O)[C@H](CCCN=C(N)N)NC(=O)[C@@H](Cc2ccccc2)NC(=O)[C@H](Cc2c[nH]cn2)NC1=O`, with 1 nM.
For the compound `CCCC[C@H](NC(C)=O)C(=O)N[C@H]1CC(=O)NCCCCC(C(N)=O)NC(=O)[C@H](Cc2c[nH]c3ccccc23)NC(=O)[C@H](CCCN=C(N)N)NC(=O)C([C@@H](C)c2ccccc2)NC(=O)[C@H](Cc2c[nH]cn2)NC1=O` (single isomer, unassigned), the figures for the concentration giving a half-maximal response (EC50) in experiment [1] and in experiment [2] were 3.44 nM and 6.25 nM, respectively. The values for the Relative potency (in the experiment with lizard; in experiment [3]) were 0.29 and 0.016, respectively.
For `CCCC[C@H](NC(C)=O)C(=O)N[C@H]1CC(=O)NCCCCC(C(N)=O)NC(=O)C([C@H](C)c2c[nH]c3ccccc23)NC(=O)[C@H](CCCN=C(N)N)NC(=O)C(Cc2ccccc2)NC(=O)[C@H](Cc2c[nH]cn2)NC1=O` (single isomer, unassigned; 11) [listing 2 of 2 here], the Relative potency in the experiment with lizard turned out to be 1; in experiment [3], 0.3.
For the compound `CCCC[C@H](NC(C)=O)C(=O)N[C@H]1CC(=O)NCCCCC(C(N)=O)NC(=O)[C@H](Cc2c[nH]c3ccccc23)NC(=O)[C@H](CCCN=C(N)N)NC(=O)[C@@H]([C@H](C)c2ccccc2)NC(=O)[C@H](Cc2c[nH]cn2)NC1=O` (single isomer, unassigned; 5) [listing 1 of 2 here], the half-maximal effective concentration (EC50) in experiment [1] is 0.2 nM; in experiment [2], 6.25 nM.
Take `CCCC[C@H](NC(C)=O)C(=O)N[C@H]1CC(=O)NCCCC[C@H](C(N)=O)NC(=O)[C@H]([C@@H](C)c2c[nH]c3ccccc23)NC(=O)[C@H](CCCN=C(N)N)NC(=O)[C@@H](Cc2ccccc2)NC(=O)[C@H](Cc2c[nH]cn2)NC1=O`: the Relative potency with lizard stood at 1; in experiment [3], 0.23.
For `CCCC[C@H](NC(C)=O)C(=O)N[C@H]1CC(=O)NCCCCC(C(N)=O)NC(=O)[C@H](Cc2c[nH]c3ccccc23)NC(=O)[C@H](CCCN=C(N)N)NC(=O)[C@@H]([C@H](C)c2ccccc2)NC(=O)[C@H](Cc2c[nH]cn2)NC1=O` (single isomer, unassigned; 5) [listing 2 of 2 here], the Relative potency with lizard worked out at 5; in experiment [3] it was 0.016.
In experiment [1], `CCCC[C@H](NC(=O)[C@H](CO)NC(=O)[C@H](Cc1ccc(O)cc1)NC(=O)[C@H](CO)NC(C)=O)C(=O)N[C@@H](CCC(=O)O)C(=O)N[C@@H](Cc1c[nH]cn1)C(=O)N[C@@H](C(=O)N[C@@H](CCCN=C(N)N)C(=O)N[C@@H](Cc1c[nH]c2ccccc12)C(=O)NCC(=O)N[C@@H](CCCCN)C(=O)N1CCC[C@H]1C(=O)N[C@H](C(N)=O)C(C)C)[C@@H](C)c1ccccc1` (stereo in doubt; 16) yielded an EC50 of 0.5 nM.
